Like-named read-outs stand apart in the source and are kept apart here.
Experiments:
[1] = Pharmacokinetic parameters in rhesus monkeys; assay type: in vivo; conditions: for AUC(0-t) / Cmax / MRT / t1/2: plasma, rhesus monkeys, single dose; for AUC(0-t) / Cmax / MRT / individual variation of in vivo exposure / t1/2: 50 mg/kg
Method: The pharmacokinetic parameters of the compound of formula (IV) and its different salt forms were studied in rhesus monkeys, and the properties of the different forms of the compounds were evaluated in detail. Four rhesus monkeys were used as test animals, half male and half female. The rhesus monkeys were administered a single dose of 50 mg/kg. Multi-crossover design was adopted to administer different drugs to test animals, and the convalescence from each cycle was three days. Blood samples (0.5 mL) were taken from the femoral vein before administration (0 h), and at 0.25 h, 0.5 h, 1 h, 2 h, 4 h, 6 h, 8 h and 24 h after administration, stored in heparinized tubes, shaken well, and centrifuged for 10 minutes at 3500 rpm to separate blood plasma. The plasma samples were stored at low temperature, LC-MS/MS was used to measure drug concentration in plasma and liver, and pharmacokinetic parameters were analyzed by WinNonlin 5.3 software.

[2] = tested on: rheumatoid arthritis patients; conditions: phase III clinical trial, cited from earlier work

t1/2 [1]	Compound	AUC(0-t) [1]	Cmax [1]	MRT [1]	other results
5.3 ± 1.6 h	COc1nsc(NC(=O)N2C[C@H]3C[C@H](N(C)c4ncnc5[nH]ccc45)C[C@H]3C2)n1 [Bisulfate, (3aR,5s,6aS)—N-(3-methoxyl-1,2,4-thiadiazol-5-yl)-5-(methyl(7H-pyrrolo[2,3-d]pyrimidin-4-yl)amino)hexahydrocyclopenta[c]pyrrole-2(1H)-carboxamide bisulfate]	–	–	–	AUC(0-t) ([1]; both sexes, rhesus monkey, read-out: AUC(0-t)): 63000 ± 53600 ng·h/mL; Cmax ([1]; both sexes, rhesus monkey, read-out: Cmax): 9940 ± 5320 ng/mL; MRT ([1]; both sexes, rhesus monkey, read-out: MRT): 6.3 ± 1.7 h; increase of in vivo exposure relative to that of the base ([1]; monkeys, 50 mg/kg single dose): 50%; individual variation of in vivo exposure ([1]; monkeys, 50 mg/kg single dose, listed as bisulfate salt): relatively small individual variation
6.3 ± 3.5 h	COc1nsc(NC(=O)N2C[C@H]3C[C@H](N(C)c4ncnc5[nH]ccc45)C[C@H]3C2)n1 [Compound of formula (IV), (3aR,5s,6aS)—N-(3-Methoxy-1,2,4-thiadiazol-5-yl)-5-(methyl(7H-pyrrolo[2,3-d]pyrimidin-4-yl)amino)hexahydrocyclopenta[c]pyrrol-2(1H)-carboxamide]	41111 ± 59593 ng·h/mL	6176 ± 8838 ng/mL	8.8 ± 5.16 h	in vivo exposure ([1]; monkeys, 50 mg/kg single dose): 41111 ng/ml*h; individual variation of in vivo exposure ([1]; monkeys, 50 mg/kg single dose): relatively large individual variation
–	C[C@@H]1CCN(C(=O)CC#N)C[C@@H]1N(C)c1ncnc2[nH]ccc12 [tofacitinib]	–	–	–	efficacy compared with methotrexate ([2]; 5 mg/10 mg as a single drug): significantly better than methotrexate; efficacy in reducing the progression of internal structural damage compared with methotrexate ([2]; period of six months): slightly better than methotrexate

Compound	t1/2 [1]	AUC(0-t) [1]	Cmax [1]	MRT [1]	other results
Citrate	6.3 ± 5.5 h	44357 ± 45012 ng·h/mL	5627 ± 4201 ng/mL	10.0 ± 7.6 h	–

Reference: patent US9422300B2, “Bisulfate of janus kinase (JAK) inhibitor and preparation method therefor” (Jiangsu Hengrui Medicine Co., Ltd., priority 2013, dated 2016)
